≈ marks a conversion by molar mass, not a printed value.

A short description of data set [1]: Water solubility (20° C.). It is filed as physicochemical.
For data set [2] the following is noted: 20° C.; cited from earlier work.
For data set [3] the following is noted: J. Sangster, J. Phys. Chem. Ref. Data 18, 111, 1989; cited from earlier work.
The nature of data set [4]: amine content of the aqueous phase after phase separation of heated MCA/DMCA mixture in water. It is filed as physicochemical. Conditions: 3 M MCA:DMCA 1:3 wt./wt. in water, phases separated. The procedure:
Aqueous samples containing MCA and/or DMCA were analysed by UPLC-MS/MS. The UPLC apparatus was a Waters ACQUITY° system. Injection volume was 3 μl. Mobile phase A: 10 mM ammonium acetate, 0.1 wt. % formic acid in water. Mobile phase B: methanol. Column: ACQUITY UPLC® HSB T3, 1.8 μ2.1×50 mm. Column temperature: 30° C. Gradient (Table 1). The mass spectrometer was an AB SCIEX™ API 3200 apparatus.
A mixture (200 ml) of MCA and DMCA (total amine concentration is 3 M; ratio MCA:DMCA is 1:3 wt./wt.≈1:2.67 mol/mol; total absolute amount MCA is 92.8 g/l; total amount of DMCA is 278.4 g/l) in water was heated at various temperatures for 24 h during which phase separation occurred. The phases were separated and the aqueous phase was analysed for determining the amine content. As can be observed from the data in Table 9, the amount of amine decreases with increasing temperature.

For orientation: solubility means the concentration that dissolves in the medium under given conditions. Low readings indicate a poorly soluble substance, high ones a readily soluble substance. Consider `CN(C)C1CCCCC1` [DMCA, N,N-dimethylcyclohexylamine], for which, in data set [1], the solubility was roughly 480 mM (≈ 61.1 mg/mL). In data set [2], the Water solubility was 54 mg/mL.
Consider `NC1CCCCC1` [cyclohexylamine], for which the “measured log P” value in data set [3] is 1.49±0.10.
With `CNC1CCCCC1` [MCA, N-methylcyclohexylamine], the “amine content of aqueous phase (MCA)” value was determined as 6940 mg/L in data set [4] (heated 24 h at 40 ° C.), 5630 mg/L in data set [4] (heated 24 h at 50 ° C.), 5090 mg/L in data set [4] (heated 24 h at 60 ° C.) and 4520 mg/L in data set [4] (heated 24 h at 70 ° C.).
